From PubChem BioAssay AID1963837 (Molecular Pharmacology Branch, DTP, NCI, 2024)

Tested on: 843126-344-R-J1-PDC complex spheroid viability
Test: Anticancer human tumor 843126-344-R-J1-PDC patient-derived melanoma cell line growth inhibition [POLQ]
Conditions: curve of first compound; second compound 10 µM
Procedure, shortened: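 Three-cell-type spheroids modelling solid tumor plus stroma served as the readout system; POL inhibitors were tested individually and in combination, concentration ranges set by clinical Cmax where known.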
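Throughout, for viability, T/C: spheroids exposed to drugs for seven days before readout.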

SMILES	IC50 [µM]
CC1COCCN1c1cc(C2(O)CC3CCC(C2)O3)c2cnn(-c3ccn[nH]3)c2n1 (stereo unspecified) + Nc1ccc(C#CCN(C(=O)Cc2ncc(C(F)(F)F)cc2C(F)(F)F)c2ccc(F)cc2)nn1	0.21
CCc1cc2c(N3CCc4c(cc(Cn5ccnc5)cc4-c4cn(C)nc4C(F)(F)F)C3=O)cc(C)nc2c(OC)n1 + Nc1ccc(C#CCN(C(=O)Cc2ncc(C(F)(F)F)cc2C(F)(F)F)c2ccc(F)cc2)nn1	> 10
COc1cc2cc(C(=O)CCC(=O)O)sc2cc1OC + Nc1ccc(C#CCN(C(=O)Cc2ncc(C(F)(F)F)cc2C(F)(F)F)c2ccc(F)cc2)nn1	> 10
O=C(Nc1ccc(O)c(NS(=O)(=O)c2ccc(F)cc2)c1)c1ccc(-c2ccccc2)cc1 + Nc1ccc(C#CCN(C(=O)Cc2ncc(C(F)(F)F)cc2C(F)(F)F)c2ccc(F)cc2)nn1	> 10

Same assay, conditions: second compound 0.0316 µM; first compound 0.0316 µM; stronger effect = lower value

SMILES	viability, T/C [%]
C#Cc1c(F)ccc2cc(O)cc(-c3ncc4c(N5CC6CCC(C5)N6)nc(OCC56CCCN5CC(F)C6)nc4c3F)c12 (stereo unspecified) + Nc1ccc(C#CCN(C(=O)Cc2ncc(C(F)(F)F)cc2C(F)(F)F)c2ccc(F)cc2)nn1	87.4
CC1COCCN1c1cc(C2(O)CC3CCC(C2)O3)c2cnn(-c3ccn[nH]3)c2n1 (stereo unspecified) + Nc1ccc(C#CCN(C(=O)Cc2ncc(C(F)(F)F)cc2C(F)(F)F)c2ccc(F)cc2)nn1	82.7
CCc1cc2c(N3CCc4c(cc(Cn5ccnc5)cc4-c4cn(C)nc4C(F)(F)F)C3=O)cc(C)nc2c(OC)n1 + Nc1ccc(C#CCN(C(=O)Cc2ncc(C(F)(F)F)cc2C(F)(F)F)c2ccc(F)cc2)nn1	96.9
COc1cc2cc(C(=O)CCC(=O)O)sc2cc1OC + Nc1ccc(C#CCN(C(=O)Cc2ncc(C(F)(F)F)cc2C(F)(F)F)c2ccc(F)cc2)nn1	84.1
O=C(Nc1ccc(O)c(NS(=O)(=O)c2ccc(F)cc2)c1)c1ccc(-c2ccccc2)cc1 + Nc1ccc(C#CCN(C(=O)Cc2ncc(C(F)(F)F)cc2C(F)(F)F)c2ccc(F)cc2)nn1	82.5

Same assay, conditions: second compound 0.0316 µM; first compound 0.1 µM; stronger effect = lower value

SMILES	viability, T/C [%]
C#Cc1c(F)ccc2cc(O)cc(-c3ncc4c(N5CC6CCC(C5)N6)nc(OCC56CCCN5CC(F)C6)nc4c3F)c12 (stereo unspecified) + Nc1ccc(C#CCN(C(=O)Cc2ncc(C(F)(F)F)cc2C(F)(F)F)c2ccc(F)cc2)nn1	95.1
CC1COCCN1c1cc(C2(O)CC3CCC(C2)O3)c2cnn(-c3ccn[nH]3)c2n1 (stereo unspecified) + Nc1ccc(C#CCN(C(=O)Cc2ncc(C(F)(F)F)cc2C(F)(F)F)c2ccc(F)cc2)nn1	65.4
CCc1cc2c(N3CCc4c(cc(Cn5ccnc5)cc4-c4cn(C)nc4C(F)(F)F)C3=O)cc(C)nc2c(OC)n1 + Nc1ccc(C#CCN(C(=O)Cc2ncc(C(F)(F)F)cc2C(F)(F)F)c2ccc(F)cc2)nn1	95.3
COc1cc2cc(C(=O)CCC(=O)O)sc2cc1OC + Nc1ccc(C#CCN(C(=O)Cc2ncc(C(F)(F)F)cc2C(F)(F)F)c2ccc(F)cc2)nn1	82.5
O=C(Nc1ccc(O)c(NS(=O)(=O)c2ccc(F)cc2)c1)c1ccc(-c2ccccc2)cc1 + Nc1ccc(C#CCN(C(=O)Cc2ncc(C(F)(F)F)cc2C(F)(F)F)c2ccc(F)cc2)nn1	94.9

Same assay, conditions: second compound 0.0316 µM; first compound 0.316 µM; stronger effect = lower value

SMILES	viability, T/C [%]
C#Cc1c(F)ccc2cc(O)cc(-c3ncc4c(N5CC6CCC(C5)N6)nc(OCC56CCCN5CC(F)C6)nc4c3F)c12 (stereo unspecified) + Nc1ccc(C#CCN(C(=O)Cc2ncc(C(F)(F)F)cc2C(F)(F)F)c2ccc(F)cc2)nn1	99.8
CC1COCCN1c1cc(C2(O)CC3CCC(C2)O3)c2cnn(-c3ccn[nH]3)c2n1 (stereo unspecified) + Nc1ccc(C#CCN(C(=O)Cc2ncc(C(F)(F)F)cc2C(F)(F)F)c2ccc(F)cc2)nn1	54.9
CCc1cc2c(N3CCc4c(cc(Cn5ccnc5)cc4-c4cn(C)nc4C(F)(F)F)C3=O)cc(C)nc2c(OC)n1 + Nc1ccc(C#CCN(C(=O)Cc2ncc(C(F)(F)F)cc2C(F)(F)F)c2ccc(F)cc2)nn1	82
COc1cc2cc(C(=O)CCC(=O)O)sc2cc1OC + Nc1ccc(C#CCN(C(=O)Cc2ncc(C(F)(F)F)cc2C(F)(F)F)c2ccc(F)cc2)nn1	81.6
O=C(Nc1ccc(O)c(NS(=O)(=O)c2ccc(F)cc2)c1)c1ccc(-c2ccccc2)cc1 + Nc1ccc(C#CCN(C(=O)Cc2ncc(C(F)(F)F)cc2C(F)(F)F)c2ccc(F)cc2)nn1	91.8

Same assay, conditions: second compound 0.0316 µM; first compound 1 µM; stronger effect = lower value

SMILES	viability, T/C [%]
C#Cc1c(F)ccc2cc(O)cc(-c3ncc4c(N5CC6CCC(C5)N6)nc(OCC56CCCN5CC(F)C6)nc4c3F)c12 (stereo unspecified) + Nc1ccc(C#CCN(C(=O)Cc2ncc(C(F)(F)F)cc2C(F)(F)F)c2ccc(F)cc2)nn1	88.7
CC1COCCN1c1cc(C2(O)CC3CCC(C2)O3)c2cnn(-c3ccn[nH]3)c2n1 (stereo unspecified) + Nc1ccc(C#CCN(C(=O)Cc2ncc(C(F)(F)F)cc2C(F)(F)F)c2ccc(F)cc2)nn1	37.2
CCc1cc2c(N3CCc4c(cc(Cn5ccnc5)cc4-c4cn(C)nc4C(F)(F)F)C3=O)cc(C)nc2c(OC)n1 + Nc1ccc(C#CCN(C(=O)Cc2ncc(C(F)(F)F)cc2C(F)(F)F)c2ccc(F)cc2)nn1	80.7
COc1cc2cc(C(=O)CCC(=O)O)sc2cc1OC + Nc1ccc(C#CCN(C(=O)Cc2ncc(C(F)(F)F)cc2C(F)(F)F)c2ccc(F)cc2)nn1	99.8
O=C(Nc1ccc(O)c(NS(=O)(=O)c2ccc(F)cc2)c1)c1ccc(-c2ccccc2)cc1 + Nc1ccc(C#CCN(C(=O)Cc2ncc(C(F)(F)F)cc2C(F)(F)F)c2ccc(F)cc2)nn1	80.5

Same assay, conditions: second compound 0.0316 µM; first compound 3.16 µM; stronger effect = lower value

SMILES	viability, T/C [%]
C#Cc1c(F)ccc2cc(O)cc(-c3ncc4c(N5CC6CCC(C5)N6)nc(OCC56CCCN5CC(F)C6)nc4c3F)c12 (stereo unspecified) + Nc1ccc(C#CCN(C(=O)Cc2ncc(C(F)(F)F)cc2C(F)(F)F)c2ccc(F)cc2)nn1	121
CC1COCCN1c1cc(C2(O)CC3CCC(C2)O3)c2cnn(-c3ccn[nH]3)c2n1 (stereo unspecified) + Nc1ccc(C#CCN(C(=O)Cc2ncc(C(F)(F)F)cc2C(F)(F)F)c2ccc(F)cc2)nn1	29.7
